Results on 1 molecule are retold here after PMC9489553, “Biochemical and clinical studies of putative allergens to assess what distinguishes them from other non-allergenic proteins in the same family” (Transgenic Research, 2022).

The target of this assay is T1, ChMDH (Cladosporium herbarum, UniProt P0C0Y5).
T1 construct: full length, codon-optimised synthetic gene, pET-28a, E. coli BL21(DE3), N-terminal His-tag cleaved, tetramer
Kind of assay: X-ray crystal structure, […] Å. Format: binding. The note with it: co-crystallised with 5 mM NADP+, pH 7.0, 4 °C; active site.

T1 sequence (P0C0Y5 whole entry): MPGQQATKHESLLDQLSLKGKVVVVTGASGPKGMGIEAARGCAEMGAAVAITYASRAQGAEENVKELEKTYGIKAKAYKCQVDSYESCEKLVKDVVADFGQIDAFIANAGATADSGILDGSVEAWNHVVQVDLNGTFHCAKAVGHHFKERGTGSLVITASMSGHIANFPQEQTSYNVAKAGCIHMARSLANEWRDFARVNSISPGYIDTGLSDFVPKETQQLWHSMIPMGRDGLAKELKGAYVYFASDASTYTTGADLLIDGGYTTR

As to `NC(=O)c1ccc[n+]([C@@H]2O[C@H](COP(=O)(O)OP(=O)(O)OC[C@H]3O[C@@H](n4cnc5c(N)ncnc54)[C@H](OP(=O)(O)O)[C@@H]3O)[C@@H](O)[C@H]2O)c1` [NADP^+], the “X-ray crystal structure, 2.04 Å” value is recorded as “ChMDH (the third orphan allergen selected for study) in complex with NADP^+ was determined”.
